“And” between values parts separate entries of the source, which are not always exact repeats. Equal values may be shown once. “Also recorded” adds a separate entry of the source. Where a name gives a salt, the structure may show the parent alone.
Legend:
[1] = voltage sensitivity testing on the voltage clamped hemispherical lipid bilayer (HLB) apparatus
[2] = water solubility / deliverability to membranes (in words); format: physicochemical; details: delivery to the membrane

Row | SMILES | voltage sensitivity / voltage dependence in words [1] | ΔF/F per 100 mV in Dynamic Range (mV) ([1]; dynamic range [−100, 0] mV) | τ-off [1] | τ-on [1] | further results
1 | CCCCN(CCCC)c1ccc2cc(C=Cc3cc[n+](CCCS(=O)(=O)[O-])cc3)ccc2c1 [Di-4-ANEPPS, 4-(2-(6-(dibutylamino)-2-naphthalenyl)ethenyl)-1-(3-sulfopropyl)pyridinium hydroxide inner salt, reference compound] | approximately linear voltage dependence | – | – | – | voltage sensitivity ([1]; approximately linear over a broad range of applied voltage): 12 %/100 mV
2 | CN(CCCCCCCCCCCCNC(=O)CCCCCCCCCCCNC(=O)COCCOCCNC(=O)CCc1c([N+](=O)[O-])cc([N+](=O)[O-])c([N-]c2c([N+](=O)[O-])cc([N+](=O)[O-])cc2[N+](=O)[O-])c1[N+](=O)[O-])c1ccc2cc(/C=C/c3cc[n+](CCOCCOCCO)cc3)ccc2c1 [PY6242] | – | – | – | – | solubility in words [2]: Low solubility
3 | CN(CCCCCCCCCCCCNC(=O)CCCCCCCCCCCNC(=O)CCc1c([N+](=O)[O-])cc([N+](=O)[O-])c(Nc2c([N+](=O)[O-])cc([N+](=O)[O-])cc2[N+](=O)[O-])c1[N+](=O)[O-])c1ccc2cc(/C=C/c3cc[n+](CCCCS(=O)(=O)[O-])cc3)ccc2c1 [PY6256] | – | 24% | – | – | ΔF/F per 100 mV in Dynamic Range (mV) ([1]; dynamic range [0, 100] mV): 39%
4 | CC[N+](CC)(CC)CCC[n+]1ccc(/C=C/c2ccc3cc(N(C)CCCCCCCCCCCCNC(=O)CCCCCCCCCCCNC(=O)CCc4c([N+](=O)[O-])cc([N+](=O)[O-])c(Nc5c([N+](=O)[O-])cc([N+](=O)[O-])cc5[N+](=O)[O-])c4[N+](=O)[O-])ccc3c2)cc1 [TBFQ 15] | – | – | – | – | ΔF/F per 100 mV ([1]; no dynamic range printed, electrochromic behavior): 8% and 8 ± 3%
5 | CC[N+](CC)(CC)CCC[n+]1ccc(/C=C/c2ccc3cc(N(C)CCOCCOCCNC(=O)CCCCCCCCCCCNC(=O)COCCOCCNC(=O)CCc4c([N+](=O)[O-])cc([N+](=O)[O-])c(Nc5c([N+](=O)[O-])cc([N+](=O)[O-])cc5[N+](=O)[O-])c4[N+](=O)[O-])ccc3c2)cc1 [TBFQ 16] | high voltage sensitivity | – | 5 ± 1 ms | 11 ± 2 ms | change in fluorescence/100 mV ([1]; […], dye on the inside, 20 ms voltage steps): 36%; ΔF/F per 100 mV in Dynamic Range (mV) ([1]; dynamic range [−200, −100] mV): 56 ± 13%
6 | CC[N+](CC)(CC)CCC[n+]1ccc(/C=C/c2ccc3cc(N(C)CCCCCCCCCCCCNC(=O)CCCCCCCCCCCNC(=O)COCCOCCNC(=O)CCc4c([N+](=O)[O-])cc([N+](=O)[O-])c(Nc5c([N+](=O)[O-])cc([N+](=O)[O-])cc5[N+](=O)[O-])c4[N+](=O)[O-])ccc3c2)cc1 [TBFQ 17] | better sensitivity than TBFQ 16; also recorded: responses in the physiological range that are larger than any previous fast VSDs | 66 ± 15% | 7 ± 2 ms | 12 ± 2 ms | –

— patent US20200362174A1, “COMPOUNDS AND METHODS FOR OPTICAL SENSING OF ELECTRICAL ACTIVITY IN BIOLOGICAL SYSTEMS” (UNIVERSITY OF CONNECTICUT, priority 2018, published 2020)
